Laboratory results as given in US6369003B1, “Process and composition for soil improvement by reducing microbially formed ethylene in the soil” (BASF Aktiengesellschaft, priority 1994, dated 2002).

Experiments:
[1] = system: Soybean plants (Delta Pine 415); assay: Soybeans test 3a: root nodules and total N, greenhouse; assay type: in vivo, Glycine max; conditions: after 3 weeks; for Nodules: untreated 49
Description: (§1) In these tests various types of non-sterile soils were used. The cultivation of the plants was carried out under greenhouse or climatic chamber conditions. The active compounds according to the invention were applied uniformly distributed over the soil surface in an aqueous preparation after the emergence of the respective test plants. The supply of water for the plants was carrried out using the same technique, always paying attention to uniform moistness of the soil. In the case of the cultivation of legumes, defined amounts of species-specific Rhizobia were admixed to the soil. In some cases inoculation was also carried out by seed treatment.
a) Soybean plants (Delta Pine 415) were cultivated under greenhouse conditions in low N Limburgerhof soil in plastic pots (500 ml) and watered from above as required. A few days after emergence the plants were thinned out to 5 plants per pot.
In 8 pots in each case per test member an aqueous active compound solution of 2.3.1.3 was applied by watering. 16 pots remained untreated in each case.

Peas (Field Peas VNS) = assay: Peas test 2c: root nodules, root and shoot biomass, greenhouse; assay type: in vivo, Pisum sativum; conditions: 30 days after treatment; for Nodules: untreated 6.1; for Dry matter root: untreated 275; for Dry matter shoot: untreated 459
Description: as §1, with “treatment. c) Peas (Field Peas VNS) were cultivated under greenhouse conditions in low N, sandy loam soil in plastic pots (750 ml) and watered from above as required. A few days after emergence the plants were thinned out to 7 plants per pot. In 5 pots in each case 25 ml each of an aqueous preparation of one concentration of 2.3.1.3 were applied by watering. 5 pots remained untreated. 30 days after treatment the following results were obtained: […]” for “treatment.”

[2] = system: Soybeans of the variety Delta Pine 147; assay: Field test: seed yield in soybeans; assay type: in vivo, Glycine max; conditions: untreated = 100 (29.9 dt/ha)
Description: The tests a) and b) were carried out under conditions like those in practice in 1993 on the field test site of BASF Corporation in Holly Springs, N.C., USA. This location is distinguished by a medium-heavy soil (sandy loam).
Soybeans of the variety Delta Pine 147 were used. Treatment was carried out to the following stages of development: 11 (1st trefoil formed), 13 (3rd trefoil formed) and 14 (5th trefoil formed). For treatment, the soil between the rows was sprayed with an aqueous preparation of the active compound 2.3.1.3. Immediately after the application, the active compound was washed into the soil by spray irrigation with 20 mm of water. The spray irrigation was also used to wash off active compound which had possibly reached the leaves.
Harvesting of the plants at full maturity gave the following results: […]

[3] = system: Peas (Kleine Rheinländerin); assay: Peas test 2b: biomass and root nodules, greenhouse; assay type: in vivo, Pisum sativum; conditions: 12 days after treatment; for Dry matter (shoot + root): control 2.55; for Nodules: control 20
Description: as §1
b) Peas (Kleine Rheinländerin) were cultivated under greenhouse conditions in low N Limburgerhof soil in plastic pots (500 ml) and watered from above as required (constant weight). A few days after emergence the plants were thinned out to 5 plants per pot.
(§2) In four pots in each case aqueous active compound solutions of one concentration of 2.3.1.3 were applied by watering. Four pots remained untreated.
12 days after treatment the following results were obtained: […]

[4] = system: Peas (Kleine Rheinländerin); assay: Peas test 2a: biomass, root nodules, nitrogen assimilation, greenhouse; assay type: in vivo, Pisum sativum; conditions: 3 weeks after treatment; for Dry matter (shoot + root): control 3.3; for Nodules: control 13; for Total N (total nitrogen in shoot + root): control 78.5
Description: as §1
a) Peas (Kleine Rheinländerin) were cultivated under greenhouse conditions in low N Limburgerhof soil in plastic pots (500 ml) and watered from above as required (a constant weight was maintained here). A few days after emergence the plants were thinned out to 5 plants per pot.
as §2
3 weeks after treatment the following results were obtained: […]

[5] = system: Lucerne plants (Maricopa); assay: Lucerne: root nodules and shoot biomass, greenhouse; assay type: in vivo, Medicago sativa; conditions: 25 days after treatment; for Root nodules: untreated 10.5; for Dry matter shoot: untreated 180
Description: as §1
Lucerne plants (Maricopa) were cultivated under greenhouse conditions in low N, sandy loam soil in plastic pots (750 ml) and watered from above as required. A few days after emergence the plants were thinned out to 3 plants per pot.
In 5 pots in each case 25 ml of an aqueous preparation of one concentration of 2.3.1.3 were applied by watering. 5 pots remained untreated.
25 days after treatment the following results were obtained: […]

Wheat (Ralle) = assay: Promotion of shoot growth of wheat, greenhouse; assay type: in vivo; conditions: applied by watering 10 days after sowing; 3 weeks after treatment
Description: as §1
Wheat (Ralle) and rape (Petranova) plants were cultured under greenhouse conditions in low N Limburgerhof soil in plastic pots (500 ml) and watered from above as required. The water content of the soil here was about 80% of the maximum water capacity. A few days after emergence the plants were thinned out to 40 plants per pot.
10 days after sowing aqueous preparations of 2.3.1.3 were applied by watering to 8 pots per test series in each case. 16 pots in each case remained untreated. 3 weeks after treatment the fresh shoot weight of the plants was determined.

In the case of COC(=O)COC(=O)CON=C(C)C [active compound 2.3.1.3], the “Total N (shoot + root)” value ([1]; 0.003 mg of a.s./pot) is reported as 109 % of control, the Nodules ([1]; 0.003 mg of a.s./pot) is reported as 60 number/pot and the “Total N (shoot + root)” value ([1]; 0.030 mg of a.s./pot) is reported as 108 % of control. For the same compound, the Nodules ([1]; 0.030 mg of a.s./pot) was 62 number/pot, the “Total N (shoot + root)” value ([1]; 0.300 mg of a.s./pot) was 118 % of control and the Nodules ([1]; 0.300 mg of a.s./pot) was 73 number/pot. It also gave a Nodules (Peas (Field Peas VNS); 3 g of a.s./ha) of 41.5 number/plant, a Dry matter root (Peas (Field Peas VNS); 3 g of a.s./ha) of 849 mg/plant and a Dry matter shoot (Peas (Field Peas VNS); 3 g of a.s./ha) of 1064 mg/plant. For the same compound, the Nodules (Peas (Field Peas VNS); 30 g of a.s./ha) was 39.4 number/plant, the Dry matter root (Peas (Field Peas VNS); 30 g of a.s./ha) was 704 mg/plant and the Dry matter shoot (Peas (Field Peas VNS); 30 g of a.s./ha) was 795 mg/plant. The Nodules (Peas (Field Peas VNS); 300 g of a.s./ha) was 56.1 number/plant, the Dry matter root (Peas (Field Peas VNS); 300 g of a.s./ha) was 945 mg/plant and the Dry matter shoot (Peas (Field Peas VNS); 300 g of a.s./ha) was 1209 mg/plant. For the same compound, the Bean yield ([2]; 10 g/ha of a.s., growth stage 11 during treatment) was 104%, the Bean yield ([2]; 10 g/ha of a.s., growth stage 13 during treatment) was 116% and the Bean yield ([2]; 10 g/ha of a.s., growth stage 14 during treatment) was 110%. The Bean yield ([2]; 100 g/ha of a.s., growth stage 11 during treatment) was 122%, the Bean yield ([2]; 100 g/ha of a.s., growth stage 13 during treatment) was 117% and the Bean yield ([2]; 100 g/ha of a.s., growth stage 14 during treatment) was 112%. It also gave a Bean yield ([2]; 1000 g/ha of a.s., growth stage 11 during treatment) of 110%, a Bean yield ([2]; 1000 g/ha of a.s., growth stage 13 during treatment) of 122% and a Bean yield ([2]; 1000 g/ha of a.s., growth stage 14 during treatment) of 108%. For the same compound, the “Dry matter (shoot + root)” value ([3]; 0.001 mg/pot) was 2.65 g/pot, the Nodules ([3]; 0.001 mg/pot) was 31 number/pot and the “Dry matter (shoot + root)” value ([3]; 0.003 mg/pot) was 3.07 g/pot. For the same compound, the Nodules ([3]; 0.003 mg/pot) was 68 number/pot, the “Dry matter (shoot + root)” value ([3]; 0.010 mg/pot) was 3.00 g/pot and the Nodules ([3]; 0.010 mg/pot) was 66 number/pot. For the same compound, the “Dry matter (shoot + root)” value ([3]; 0.030 mg/pot (insect attack)) was 2.32 g/pot, the Nodules ([3]; 0.030 mg/pot (insect attack)) was 30 number/pot and the “Dry matter (shoot + root)” value ([3]; 0.100 mg/pot) was 2.52 g/pot. The Nodules ([3]; 0.100 mg/pot) was 59 number/pot, the “Dry matter (shoot + root)” value ([3]; 0.300 mg/pot) was 3.13 g/pot and the Nodules ([3]; 0.300 mg/pot) was 76 number/pot. The “Dry matter (shoot + root)” value ([4]; 0.03 mg/pot) was 3.2 g/pot, the Nodules ([4]; 0.03 mg/pot) was 28 number/pot and the “Total N (total nitrogen in shoot + root)” value ([4]; 0.03 mg/pot) was 75.0 mg/pot. For the same compound, the “Dry matter (shoot + root)” value ([4]; 0.30 mg/pot) was 4.0 g/pot, the Nodules ([4]; 0.30 mg/pot) was 127 number/pot and the “Total N (total nitrogen in shoot + root)” value ([4]; 0.30 mg/pot) was 120.5 mg/pot. The “Dry matter (shoot + root)” value ([4]; 3.00 mg/pot) was 3.1 g/pot, the Nodules ([4]; 3.00 mg/pot) was 99 number/pot and the “Total N (total nitrogen in shoot + root)” value ([4]; 3.00 mg/pot) was 109.5 mg/pot. For the same compound, the Root nodules ([5]; 30 g of a.s./ha) was 10.7 number/plant, the Dry matter shoot ([5]; 30 g of a.s./ha) was 300 mg/plant and the Root nodules ([5]; 300 g of a.s./ha) was 10.3 number/plant. The Dry matter shoot ([5]; 300 g of a.s./ha) was 240 mg/plant and the “shoot growth (fresh shoot weight)” value (Wheat (Ralle)) was “shoot growth was promoted in nearly all cases”.
